According to ChEMBL document CHEMBL1156590, “Stereoselectivity of binding of alpha-(N-benzylamino)benzylphosphonic acids to prostatic acid phosphatase” (Bioorg Med Chem Lett, 2008):

biological target: T1, Prostatic acid phosphatase (Homo sapiens, UniProt P15309); assay: Inhibition of human prostatic acid phosphatase
T1 sequence (P15309 whole entry): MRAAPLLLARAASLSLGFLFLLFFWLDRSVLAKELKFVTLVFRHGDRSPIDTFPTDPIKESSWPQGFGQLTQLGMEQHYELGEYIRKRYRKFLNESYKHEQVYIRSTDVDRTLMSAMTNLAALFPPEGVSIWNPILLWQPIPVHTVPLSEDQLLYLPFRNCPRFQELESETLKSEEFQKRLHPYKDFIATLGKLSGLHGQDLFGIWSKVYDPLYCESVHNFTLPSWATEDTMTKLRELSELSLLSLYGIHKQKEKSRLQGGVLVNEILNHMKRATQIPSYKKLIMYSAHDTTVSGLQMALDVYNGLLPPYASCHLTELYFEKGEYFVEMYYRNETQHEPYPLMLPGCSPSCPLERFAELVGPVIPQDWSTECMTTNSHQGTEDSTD

Compared with C[C@@H](N[C@H](c1ccccc1)P(=O)(O)O)c1ccccc1, C[C@H](N[C@@H](c1ccccc1)P(=O)(O)O)c1ccccc1 is 47-fold higher in IC50: 26 nM for the first, 1210 nM for the second. The first is the more potent here.

Compared with COc1ccc([C@H](N[C@@H](C)c2ccccc2)P(=O)(O)O)cc1, COc1ccc([C@@H](N[C@H](C)c2ccccc2)P(=O)(O)O)cc1 is 59-fold lower in IC50: 1070 nM for the first, 18 nM for the second. The second is the more potent here.
